Earlier results as cited in publication PMC10720383, “Acetylcholinesterase Inhibition in Rats and Humans Following Acute Fenitrothion Exposure Predicted by Physiologically Based Kinetic Modeling-Facilitated Quantitative In Vitro to In Vivo Extrapolation” (Environmental Science & Technology, 2023).
Like-named read-outs stand apart in the source and are kept apart here.

Columns and labels:
[1] = humans; diazinon constant used for FNT; cited from earlier work
[2] = rats; diazinon constant used for FNT; cited from earlier work
[3] = assumed default for neutral and acidic compounds, no experimental data; cited from earlier work
[4] = not clear if experimental or in silico, cited from earlier work

Row | SMILES | absorption rate constant from intestine to liver (kaI) [1] | absorption rate constant from stomach to liver (kaS) [1] | transfer rate constant from stomach to intestine (ksI) [1] | absorption rate constant from intestine to liver (kaI) [2] | absorption rate constant from stomach to liver (kaS) [2] | transfer rate constant from stomach to intestine (ksI) [2] | blood plasma ratio (BPr) [3] | LogP, reported data ([4]; ref OECD 1994) | pKa, reported data ([4]; ref Shahpoury et al. 2018)
1 | CCOP(=S)(OCC)Oc1cc(C)nc(C(C)C)n1 [diazinon] | 0.59 h⁻¹ | 0.32 h⁻¹ | 0.48 h⁻¹ | 0.59 h⁻¹ | 0.1 h⁻¹ | 0.48 h⁻¹ | – | – | –
2 | Cc1cc(O)ccc1[N+](=O)[O-] [MNP, 3-methyl-4-nitrophenol] | – | – | – | – | – | – | 0.55 | 2.12 | 7.33
